# According to patent publication US3941842A, “P,P'-Disubstituted α-trichloromethylbenzylanilines” (priority 1972, dated 1976):
# “Also recorded” adds a separate entry of the source.
# Legend:
# Female housefly = experiment: Metabolism of 3H-ethoxyaniline by female RSP housefly; settings: 24 hr after topical 1.0 μg 3H-ethoxyaniline (compound III)
# Procedure: (§1) The compounds of the present invention were tested for insecticidal activity by standard methods, and compared with the insecticidal activities of DDT and symmetrical analogs of DDT, such methoxychlor. Toxicological methods for the determination of the topical LD50 values to adult female SNAIDM and RSP houseflies, Musca domestica L. and to Phormia regina, and LC50 values to Culex pipiens quinquefasciatus Say, and Anopheles albimanus Weid mosquitoes were described by Metcalf el al., 44 Bull. World Health Org. 363 (1971). The methods for evaluation of metabolism by mouse liver homogenate and by female RSP housefly and salt-marsh caterpillar larvae Estigmene acrea Drury, were described by Kapoor et al., 18 J. Agr. Food Chem. 1145 (1970). The techniques for model eocsystem evluation were described by Metcalf et al., 5 J. Environ. Sci. Tech. 709 (1971).
# (§2) The biodegradability of an insecticide may be measured by administering measured doses of a tritium labeled test insecticide to a subject. Some time later the subject is sacrificed, liquefied, and a sample of the liquefied insect is placed on a thin layer chromotagraphy (tlc) plate. The plate is developed in a suitable solvent and Rf values of the various compounds contained in the sample are measured against known Rf values of previously synthesized theoretical metabolic breakdown products. The amount of each metabolite present may thus be measured by measuring the ^3 H at each separately resolved spot on the tlc plate. A permanent record may be made by exposing film to the plate to form a ratioautograph.
# Salt-marsh caterpillar = experiment: Metabolism of 3H-ethoxyaniline by salt-marsh caterpillar larvae; settings: 24 hr after feeding 0.5 mg 3H-ethoxyaniline (compound III)
# Procedure: as §1, §2
# [1] = Metabolism of 3H-labeled compound by mouse liver homogenate; settings: 0.01 μM 3H-labeled compound III, 1 hr incubation, NADPH and nicotinamide
# Procedure: as §1, §2
# [2] = Model ecosystem: distribution, ecological magnification and Biodegradability Index
# From the text: After the amounts of the various metabolites have been calculated and a determination is made as to which of the metabolites are to be designated as "polar" and which are to be designated as "non-polar", a Biodegradability Index (amount of polar metabolites/amount of nonpolar metabolites) may be calculated. Remembering that nonpolar compounds, such as DDT are readily soluble in the fatty tissues, but are not readily soluble in water based solutions, and that the cell fluid is essentially a water based solution, the lower the Biodegradability Index, the lower the amount of biodegradability of the compound. The higher the amount of polarity, the greater the likelihood that the polar compound will dissolve in water, a very polar compound, and be eliminated from the cell.
# The environmental fate of any new pesticide is a factor of paramount importance in determining how and where it might be used. The behavior of ^3 H-α-trichloromethyl-p-ethoxybenzyl-p-ethoxyaniline has been studied by the model ecosystem technique following application of 5.0 mg. of labeled compound to Sorghum plants. A summary of
# metabolites from the organisms in the model ecosystem after 33 days were
# identified by cochromatography with standards of known constitution, by
# appropriate chromogenic reagents, and by high-resolution mass
# spectrometry. The data of Table IV indicate the O-dealkylation of
# Food Chem. 1 (1972). Ethoxychlor was found in the snail to 58.6 ppm and in the fish to 0.92 ppm, along with its ethylene and the mono- and bis-phenols formed by O-dealkylation. The ecological magnification (E.M.) of ethoxychlor, defined as the ratio of the parent material in the fish to the concentration in the water, was 1500-fold as compared with an E.M. of only 0.7-fold for the ethoxyaniline.
# Comparing the Biodegradability Indices (B.I.=total recovered polar metabolites/total recovered nonpolar metabolites) the values are 0.44 for ethoxychlor and 2.0 for ethoxyaniline.
# insects = settings: background; cited from earlier work
# [3] = test system: multifunction oxidase (MFO) enzymes; settings: background; cited from earlier work
# [4] = cited from earlier work
# [5] = 33 days, 5.0 mg 3H-ethoxyaniline to Sorghum
# [6] = model ecosystem, Kapoor et al., 20(1) J. Agr. Food Chem. 1 (1972)
smiles,measurement,setting,value
"CCOc1ccc(N)cc1 [C2 H5 OC6 H4 NH2, p-ethoxyaniline]","Female housefly, percent 3H in Excreta",Female housefly,9.1%
same,"Female housefly, percent 3H in Homogenate",Female housefly,8.3%
same,"Salt-marsh caterpillar, percent 3H in Excreta",Salt-marsh caterpillar,8.4%
same,"Salt-marsh caterpillar, percent 3H in Homogenate",Salt-marsh caterpillar,15.0%
same,"Mouse liver, percent 3H in homogenate",[1],13.7%
same,Concentration of ethoxyaniline equivalents in Culex (mosquito),"[2]; Culex (mosquito), 33 days, 5.0 mg 3H-ethoxyaniline to Sorghum",0.01 ppm
same,Concentration of ethoxyaniline equivalents in Gambusia (fish),[2]; [5],0.03 ppm
same,Concentration of ethoxyaniline equivalents in H2O,"[2]; H2O, 33 days, 5.0 mg 3H-ethoxyaniline to Sorghum",0.053 ppm
same,Concentration of ethoxyaniline equivalents in Oedogonium (algae),[2]; [5],0.42 ppm
same,Concentration of ethoxyaniline equivalents in Physa (snail),[2]; [5],2.556 ppm
"CSc1ccc(C(c2ccc(SC)cc2)C(Cl)(Cl)Cl)cc1 [methiochlor, 1,1,1-trichloro-2,2-bis-(p-methiophenyl)ethane]",insecticidal activity (in words),insects,considerably less insecticidal activity than DDT towards other species of insects
same,susceptibility to MFO enzymes (in words),[3],readily attacked by MFO enzymes
"CCOc1ccc(C(c2ccc(OCC)cc2)C(Cl)(Cl)Cl)cc1 [Ethoxychlor, 2,2-bis(p-ethoxyphenyl)-1,1,1-trichloroethane]",concentration found in the fish,[4]; [6],0.92 ppm
same,concentration found in the snail,[4]; [6],58.6 ppm
same,ecological magnification (E.M.),"[4]; ratio of parent material in fish to concentration in water, Kapoor et al.",1500 fold
same,Biodegradability Index (B.I.),"[4]; total recovered polar/total recovered nonpolar metabolites, ethoxychlor evaluated by Kapoor et al.",0.44
same,biodegradability (in words),[2]; model ecosystem comparison,substantially biodegradable; also recorded: substantially more biodegradable than DDT
"Oc1ccc(NC(c2ccc(O)cc2)C(Cl)(Cl)Cl)cc1 (stereo not drawn) [HOC6 H4 NHCH(CCl3)C6 H4 OH, α-trichloromethyl-p-hydroxybenzyl-p-hydroxyaniline]","Female housefly, percent 3H in Excreta",Female housefly,5.7%
same,"Female housefly, percent 3H in Homogenate",Female housefly,8.4%
same,Concentration of ethoxyaniline equivalents in Gambusia (fish),[2]; [5],0.03 ppm
same,Concentration of ethoxyaniline equivalents in Physa (snail),[2]; [5],1.512 ppm
"ClC(Cl)=C(c1ccc(Cl)cc1)c1ccc(Cl)cc1 [DDE, 1,1-dichloro-2,2-bis(p-chlorophenyl) ethylene]",susceptibility to MFO enzymes (in words),[3],do not function on DDT and its metabolic derivatives DDE and DDD
"Clc1ccc(C(c2ccc(Cl)cc2)C(Cl)Cl)cc1 [DDD, 1,1-dichloro-2,2-bis(p-chlorophenyl)ethane]",susceptibility to MFO enzymes (in words),[3],do not function on DDT and its metabolic derivatives DDE and DDD
"Cc1ccc(C(c2ccc(C)cc2)C(Cl)(Cl)Cl)cc1 [methylchlor, 1,1,1-trichloro-2,2-bis(p-methylphenyl)ethane]",insecticidal activity (in words),insects,considerably less insecticidal activity than DDT towards other species of insects
"CCOc1ccc(C(=O)C(Cl)Cl)cc1 [C2 H5 OC6 H4 C(O)CHCl2, p-ethoxydichloroacetophenone]","Female housefly, percent 3H in Excreta",Female housefly,9.7%
same,"Female housefly, percent 3H in Homogenate",Female housefly,10.4%
same,"Salt-marsh caterpillar, percent 3H in Excreta",Salt-marsh caterpillar,3.1%
same,"Salt-marsh caterpillar, percent 3H in Homogenate",Salt-marsh caterpillar,8.7%
same,Concentration of ethoxyaniline equivalents in Gambusia (fish),[2]; [5],0.28 ppm
same,Concentration of ethoxyaniline equivalents in Oedogonium (algae),[2]; [5],0.3 ppm
same,Concentration of ethoxyaniline equivalents in Physa (snail),[2]; [5],3.542 ppm
